assay: recombinant barcode read abundance after kanamycin selection (control-corrected) (log10(CPM+1)); higher = more efficient recombination; sequences stand for … in AGTGCAGAGAAAATCGGCCAGTTTTCTCTGCCTGCAGTCCGCATGCCGT…AGATTTATGCAGCGGACTGCCTTTCTCCCAAAGTGATAAACCGGACAGTATCATGGACCGGTTTTCCCGGTAATCCGTATTTGCAAGGTTGGTTTCACT; site = the 11-nt target
Procedure: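 Pooled E. coli target-specificity screen for the IS621 bridge recombinase. Each library plasmid pairs an 11-nt target (CT core) with a bridge RNA whose target-binding loop (9-nt LTG + 4-nt RTG) is reprogrammed; the rest of the 177-nt WT IS621 bridge RNA scaffold is fixed. The plasmid is co-electroporated with a WT donor plasmid; recombinase is induced with 0.1 mM IPTG and recombinants are selected on kanamycin. Recombinant barcodes are sequenced, converted to CPM, averaged over two biological replicates and corrected by the unselected control CPM. Molecule = full bridge RNA written as DNA: LTG = specificity nt 1-9, RTG = reverse complement of specificity nt 8-11, in the WT scaffold.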
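Note: IS621 recombinase and bridge RNA in Escherichia coli cells.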

| Sequence | recombinant barcode read abundance (log10) |
| --- | --- |
| AGCGAATCTTGGGTTCTAACCTGTTGCCT (site AGGGAATCTAG) | 0.323 |
| AGCGAATCTTGGGTTCTAACCTGTTGCCT (site AGTGAATCTAG) | 0.158 |
| AGCGACCCTTGGGTTCTAACCTGTTGCGT (site AGCGACCCTAC) | 3.18 |
| AGCGACCCTTGGGTTCTAACCTGTTGCGT (site CGCGATCCTAC) | 0.16 |
| AGCGAGTCTTGGGTTCTAACCTGTTGCCT (site AACGAGTCTAG) | 0.951 |
| AGCGAGTCTTGGGTTCTAACCTGTTGCCT (site ACCGAGTCTAG) | 0.817 |
| AGCGAGTCTTGGGTTCTAACCTGTTGCCT (site AGCGAGTCTAG) | 2.08 |
| AGCGAGTCTTGGGTTCTAACCTGTTGCCT (site ATCGAGTCTAG) | 0.465 |
| AGCGCTACTTGGGTTCTAACCTGTTGCCT (site ACCGCTACTAG) | 0.121 |
| AGCGCTACTTGGGTTCTAACCTGTTGCCT (site AGCGCTACTAG) | 0.145 |
| AGCTAACCTTGGGTTCTAACCTGTTGCCT (site AGCTAACCTAG) | 0.407 |
| AGCTAACCTTGGGTTCTAACCTGTTGCCT (site AGTGAACCTAG) | 0.127 |
| AGCTACCCTTGGGTTCTAACCTGTTGCTT (site ACCTACTCTAA) | 0.0582 |
| AGCTACCCTTGGGTTCTAACCTGTTGCTT (site AGCTACCCTAA) | 0.62 |
| AGCTCCTCTTGGGTTCTAACCTGTTGCCT (site AGCTCCTCTAG) | 0.0883 |
| AGCTCCTCTTGGGTTCTAACCTGTTGCCT (site CGCTCCTCTAG) | 0.144 |
| AGCTCCTCTTGGGTTCTAACCTGTTGCCT (site GGCTCCTCTAG) | 0.0482 |
| AGCTCCTCTTGGGTTCTAACCTGTTGCCT (site TGCTCCTCTAG) | 0.0453 |
| AGCTCGTCTTGGGTTCTAACCTGTTGCGG (site AGCTCGTCTCC) | 0.448 |
| AGCTCGTCTTGGGTTCTAACCTGTTGCGG (site AGTTCGTCTCG) | 0.191 |
| AGCTGGGCTTGGGTTCTAACCTGTTGCCT (site AACTGGGCTAG) | 0.0885 |
| AGCTGGGCTTGGGTTCTAACCTGTTGCCT (site ACCTGGGCTAG) | 0.101 |

| Sequence | recombinant barcode read abundance (log10) |
| --- | --- |
| AGCTGGGCTTGGGTTCTAACCTGTTGCCT (site AGCTGGGCTAG) | 0.235 |
| AGCTGGGCTTGGGTTCTAACCTGTTGCCT (site ATCTGGGCTAG) | 0.11 |
| AGCTTATCTTGGGTTCTAACCTGTTGCCT (site AGCTAAACTAG) | 0.131 |
| AGCTTATCTTGGGTTCTAACCTGTTGCCT (site AGCTTATCTAG) | 0.179 |
| AGGAACACTTGGGTTCTAACCTGTTGCTT (site AGGAACACTAA) | 1.56 |
| AGGAACACTTGGGTTCTAACCTGTTGCTT (site AGGAACACTCA) | 0.279 |
| AGGAACCCTTGGGTTCTAACCTGTTGCTT (site AGGAACCCTAA) | 0.911 |
| AGGAACCCTTGGGTTCTAACCTGTTGCTT (site AGGAACCCTCA) | 0.328 |
| AGGAACCCTTGGGTTCTAACCTGTTGCTT (site AGGAACCCTGA) | 0.127 |
| AGGAACCCTTGGGTTCTAACCTGTTGCTT (site AGGAACCCTTA) | 0.256 |
| AGGAAGACTTGGGTTCTAACCTGTTGCGG (site AGGAAGACTCC) | 3.01 |
| AGGAAGACTTGGGTTCTAACCTGTTGCGG (site AGGAAGACTCG) | 0.25 |
| AGGAAGGCTTGGGTTCTAACCTGTTGCCA (site AGGAAGGCTTG) | 0.693 |
| AGGAAGGCTTGGGTTCTAACCTGTTGCCA (site GACGTAACTCT) | 0.145 |
| AGGACTACTTGGGTTCTAACCTGTTGCCT (site AGAACTACTAG) | 0.217 |
| AGGACTACTTGGGTTCTAACCTGTTGCCT (site AGGACTACTAG) | 1.3 |
| AGGAGAGCTTGGGTTCTAACCTGTTGCTT (site AGGAGAGCTAA) | 1.13 |
| AGGAGAGCTTGGGTTCTAACCTGTTGCTT (site CTAGCGACTGT) | 0.0392 |
| AGGAGCCCTTGGGTTCTAACCTGTTGCCA (site AGGAGCCCTAG) | 0.408 |
| AGGAGCCCTTGGGTTCTAACCTGTTGCCA (site AGGAGCCCTTG) | 0.841 |
| AGGAGCCCTTGGGTTCTAACCTGTTGCTA (site AGGAGCCCTAA) | 0.0121 |
| AGGAGCCCTTGGGTTCTAACCTGTTGCTA (site AGGAGCCCTCA) | 0.165 |

| Sequence | recombinant barcode read abundance (log10) |
| --- | --- |
| AGGAGCCCTTGGGTTCTAACCTGTTGCTA (site AGGAGCCCTGA) | 0.0798 |
| AGGAGCCCTTGGGTTCTAACCTGTTGCTA (site AGGAGCCCTTA) | 1.38 |
| AGGATAGCTTGGGTTCTAACCTGTTGCGG (site AGGATAGCTCC) | 2.18 |
| AGGATAGCTTGGGTTCTAACCTGTTGCGG (site AGTCTAGCTCC) | 0.102 |
| AGGATAGCTTGGGTTCTAACCTGTTGCTG (site AGAATAGCTCT) | 0.148 |
| AGGATAGCTTGGGTTCTAACCTGTTGCTG (site AGGATAGCTCA) | 1.45 |
| AGGATCCCTTGGGTTCTAACCTGTTGCAG (site AGGATCCCTAT) | 0.701 |
| AGGATCCCTTGGGTTCTAACCTGTTGCAG (site AGGATCCCTCT) | 2.31 |
| AGGCCCGCTTGGGTTCTAACCTGTTGCGG (site AGGCCCGCTCC) | 0.794 |
| AGGCCCGCTTGGGTTCTAACCTGTTGCGG (site GTAAGATCTGT) | 0.186 |
| AGGCGCCCTTGGGTTCTAACCTGTTGCAG (site AGGCGCCCTAT) | 0.185 |
| AGGCGCCCTTGGGTTCTAACCTGTTGCAG (site AGGCGCCCTCT) | 1.4 |
| AGGCGCCCTTGGGTTCTAACCTGTTGCAG (site AGGCGCCCTGT) | 0.0789 |
| AGGCGCCCTTGGGTTCTAACCTGTTGCAG (site AGGCGCCCTTT) | 0.122 |
| AGGCGTCCTTGGGTTCTAACCTGTTGCCC (site AGGCGTCCTAG) | 0.417 |
| AGGCGTCCTTGGGTTCTAACCTGTTGCCC (site AGGCGTCCTCG) | 0.0817 |
| AGGCGTCCTTGGGTTCTAACCTGTTGCCC (site AGGCGTCCTGG) | 1.78 |
| AGGCGTCCTTGGGTTCTAACCTGTTGCCC (site AGGCGTCCTTG) | 0.211 |
| AGGCTGCCTTGGGTTCTAACCTGTTGCCT (site AGGCTGACTAG) | 0.126 |
| AGGCTGCCTTGGGTTCTAACCTGTTGCCT (site AGGCTGCCTAG) | 0.867 |
| AGGCTGCCTTGGGTTCTAACCTGTTGCCT (site AGGCTGGCTAG) | 0.0502 |
| AGGCTGCCTTGGGTTCTAACCTGTTGCCT (site AGGCTGTCTAG) | 0.494 |
